According to publication PMC10410761 (Proceedings of the National Academy of Sciences of the …, 2023):

Experiments:
NaV1.7 [1] = molecular target: NaV1.7 (Rattus norvegicus, UniProt O08562); assay: Whole-cell voltage clamp, sodium currents in rat DRG neurons; assay type: cell-based; conditions: Pitstop2 20 µM, vs AAV-SCR control
NaV1.7 [2] = assay: as above; assay type: cell-based; conditions: Pitstop2 20 µM, 30 min before recording, rat DRG neurons

Sequence of NaV1.7 (Rattus norvegicus, UniProt O08562) (O08562 whole entry): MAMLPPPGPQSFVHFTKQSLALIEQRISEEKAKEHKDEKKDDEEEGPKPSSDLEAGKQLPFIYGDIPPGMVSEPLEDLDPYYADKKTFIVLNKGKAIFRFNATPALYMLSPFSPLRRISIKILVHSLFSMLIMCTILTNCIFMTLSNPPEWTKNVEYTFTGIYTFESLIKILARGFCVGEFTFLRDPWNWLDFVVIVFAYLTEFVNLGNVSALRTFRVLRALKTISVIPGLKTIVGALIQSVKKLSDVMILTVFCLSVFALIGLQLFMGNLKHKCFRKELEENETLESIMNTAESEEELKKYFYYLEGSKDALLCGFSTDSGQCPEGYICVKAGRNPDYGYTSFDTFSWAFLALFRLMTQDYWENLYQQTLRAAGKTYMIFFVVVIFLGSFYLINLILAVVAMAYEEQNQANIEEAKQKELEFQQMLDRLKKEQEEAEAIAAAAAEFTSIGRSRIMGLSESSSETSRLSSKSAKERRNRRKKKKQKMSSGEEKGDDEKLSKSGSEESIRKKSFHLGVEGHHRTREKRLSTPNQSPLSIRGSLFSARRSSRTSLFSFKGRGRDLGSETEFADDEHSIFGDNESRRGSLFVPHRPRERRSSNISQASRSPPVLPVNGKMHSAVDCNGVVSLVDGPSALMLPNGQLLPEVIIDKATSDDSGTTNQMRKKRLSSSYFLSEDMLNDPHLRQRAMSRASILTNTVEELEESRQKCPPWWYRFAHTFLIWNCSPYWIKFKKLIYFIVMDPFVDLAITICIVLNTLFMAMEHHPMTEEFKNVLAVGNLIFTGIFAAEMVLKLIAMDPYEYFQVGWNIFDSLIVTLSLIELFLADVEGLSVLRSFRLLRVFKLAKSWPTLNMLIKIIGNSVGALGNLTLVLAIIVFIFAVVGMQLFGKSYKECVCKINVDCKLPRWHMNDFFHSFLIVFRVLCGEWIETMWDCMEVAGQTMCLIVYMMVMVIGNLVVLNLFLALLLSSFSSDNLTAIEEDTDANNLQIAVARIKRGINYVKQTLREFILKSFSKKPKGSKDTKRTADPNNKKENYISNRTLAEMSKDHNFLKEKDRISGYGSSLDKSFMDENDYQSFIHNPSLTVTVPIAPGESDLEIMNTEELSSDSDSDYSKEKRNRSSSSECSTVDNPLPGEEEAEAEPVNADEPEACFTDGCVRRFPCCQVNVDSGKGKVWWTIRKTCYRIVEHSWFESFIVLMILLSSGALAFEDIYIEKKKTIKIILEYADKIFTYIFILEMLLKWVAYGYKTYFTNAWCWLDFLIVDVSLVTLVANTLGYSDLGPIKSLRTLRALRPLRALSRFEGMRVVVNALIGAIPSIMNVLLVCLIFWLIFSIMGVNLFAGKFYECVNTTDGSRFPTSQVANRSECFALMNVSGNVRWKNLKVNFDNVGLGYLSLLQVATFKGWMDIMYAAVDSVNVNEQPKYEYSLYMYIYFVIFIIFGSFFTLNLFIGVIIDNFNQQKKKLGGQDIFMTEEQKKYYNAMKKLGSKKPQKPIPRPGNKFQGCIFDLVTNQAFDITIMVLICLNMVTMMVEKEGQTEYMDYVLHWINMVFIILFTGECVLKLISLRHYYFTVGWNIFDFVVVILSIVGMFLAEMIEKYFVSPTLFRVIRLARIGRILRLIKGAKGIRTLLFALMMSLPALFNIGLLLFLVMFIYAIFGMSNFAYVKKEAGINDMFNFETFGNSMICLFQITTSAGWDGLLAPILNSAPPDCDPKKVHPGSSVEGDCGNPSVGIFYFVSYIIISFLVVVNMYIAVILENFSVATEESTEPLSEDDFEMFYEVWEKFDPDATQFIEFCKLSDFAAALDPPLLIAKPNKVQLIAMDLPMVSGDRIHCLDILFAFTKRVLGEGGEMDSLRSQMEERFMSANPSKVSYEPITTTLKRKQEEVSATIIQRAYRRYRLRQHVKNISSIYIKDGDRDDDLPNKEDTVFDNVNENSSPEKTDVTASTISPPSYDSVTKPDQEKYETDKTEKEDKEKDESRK

## O=C1NC(=NS(=O)(=O)c2cccc3ccccc23)S/C1=C\c1ccc(Br)cc1 [Pitstop2]
NaV1.7 [1]
  Inhibition of NaV1.7 current in AAV-NaV1.7-CRS transfected DRG neurons: rescued
NaV1.7 [2]
  Decrease of sodium currents imposed by Myr-TAT-NaV1.7-CRS: rescued
